Assay in all cases: kinase selectivity panel
Format in all cases: biochemical

One experiment has as its target T1, SAPK2b (Homo sapiens, UniProt Q15759).
T1 construct: purchased Eurofins Pharma Discovery Services (KinaseProfiler; Cerep BioPrint panel)
The note with it: for inhibition at 10 µM: read-out: inhibition of p38 β(SAPK2β); for remaining activity at 10 µM: read-out: percentage of control activity (POC), SAPK2b. Put shortly: (§1)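 Single-point screen: 10 μM, duplicate, 125-kinase panel; follow-up IC50 from 9-point titration in duplicate for chosen hits.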

The next experiment concerns the target T2, DRAK1 (Homo sapiens, UniProt Q9UEE5).
T2 construct: purchased Eurofins Pharma Discovery Services (KinaseProfiler; Cerep BioPrint panel)
T2 sequence (Q9UEE5 1-414): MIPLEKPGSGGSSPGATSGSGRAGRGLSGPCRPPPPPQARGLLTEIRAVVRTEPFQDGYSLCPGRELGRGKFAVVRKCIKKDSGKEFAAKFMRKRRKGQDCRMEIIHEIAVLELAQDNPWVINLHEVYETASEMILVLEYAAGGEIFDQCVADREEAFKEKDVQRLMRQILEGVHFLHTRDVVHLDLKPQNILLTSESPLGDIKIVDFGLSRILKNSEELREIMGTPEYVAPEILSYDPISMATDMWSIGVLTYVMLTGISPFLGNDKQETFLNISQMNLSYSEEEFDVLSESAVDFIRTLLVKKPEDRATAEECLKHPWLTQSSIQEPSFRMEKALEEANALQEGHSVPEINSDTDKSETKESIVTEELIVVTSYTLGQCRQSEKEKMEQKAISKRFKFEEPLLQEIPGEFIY
The settings on record: read-out: percentage of control activity (POC), DRAK1. In outline:
as §1

A further experiment addresses T3, ZAP-70 (Homo sapiens, UniProt P43403).
T3 construct: purchased Eurofins Pharma Discovery Services (KinaseProfiler; Cerep BioPrint panel)
T3 sequence (P43403 1-619): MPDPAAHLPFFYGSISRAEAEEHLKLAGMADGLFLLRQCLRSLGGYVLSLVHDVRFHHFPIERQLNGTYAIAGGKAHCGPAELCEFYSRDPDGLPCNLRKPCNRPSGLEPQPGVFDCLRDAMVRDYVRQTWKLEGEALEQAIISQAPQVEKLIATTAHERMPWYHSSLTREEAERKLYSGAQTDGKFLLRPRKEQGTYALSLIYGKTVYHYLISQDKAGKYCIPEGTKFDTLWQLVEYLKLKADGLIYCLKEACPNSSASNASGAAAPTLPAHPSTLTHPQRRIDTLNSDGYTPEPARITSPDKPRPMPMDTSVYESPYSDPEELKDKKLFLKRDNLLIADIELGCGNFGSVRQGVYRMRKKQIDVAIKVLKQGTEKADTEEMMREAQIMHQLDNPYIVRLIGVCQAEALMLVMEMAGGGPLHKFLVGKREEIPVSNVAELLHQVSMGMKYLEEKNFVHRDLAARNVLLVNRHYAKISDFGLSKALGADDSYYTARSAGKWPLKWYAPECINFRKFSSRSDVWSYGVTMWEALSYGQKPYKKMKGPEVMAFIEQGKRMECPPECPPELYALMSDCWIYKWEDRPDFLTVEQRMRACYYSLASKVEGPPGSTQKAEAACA
The note with it: read-out: percentage of control activity (POC), ZAP-70. Put shortly: as §1

Another experiment deals with T4, PKCβII (Homo sapiens, UniProt P05771).
T4 construct: purchased Eurofins Pharma Discovery Services (KinaseProfiler; Cerep BioPrint panel)
T4 sequence (P05771 1-673 isoform P05771-2): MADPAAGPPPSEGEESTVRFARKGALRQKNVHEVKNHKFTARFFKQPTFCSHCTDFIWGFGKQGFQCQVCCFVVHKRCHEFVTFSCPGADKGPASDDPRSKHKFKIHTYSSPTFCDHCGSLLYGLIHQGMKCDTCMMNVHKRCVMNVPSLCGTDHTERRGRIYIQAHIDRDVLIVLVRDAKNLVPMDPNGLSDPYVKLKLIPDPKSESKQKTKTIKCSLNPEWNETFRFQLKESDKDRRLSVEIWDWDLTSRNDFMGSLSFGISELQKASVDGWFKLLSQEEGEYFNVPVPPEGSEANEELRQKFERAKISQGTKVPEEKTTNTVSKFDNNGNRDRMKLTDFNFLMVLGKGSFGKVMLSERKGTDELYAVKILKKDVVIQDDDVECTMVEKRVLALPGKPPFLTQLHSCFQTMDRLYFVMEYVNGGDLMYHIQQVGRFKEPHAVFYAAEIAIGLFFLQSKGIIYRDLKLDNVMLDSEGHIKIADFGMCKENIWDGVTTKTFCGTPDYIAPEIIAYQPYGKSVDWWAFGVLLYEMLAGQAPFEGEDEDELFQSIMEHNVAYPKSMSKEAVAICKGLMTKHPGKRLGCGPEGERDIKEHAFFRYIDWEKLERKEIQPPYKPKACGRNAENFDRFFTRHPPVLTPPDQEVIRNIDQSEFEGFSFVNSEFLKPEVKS
The settings on record: read-out: percentage of control activity (POC), PKCβII. Put shortly: as §1

For a further experiment, the target named is T5, IRAK4 (Homo sapiens, UniProt Q9NWZ3).
T5 construct: purchased Eurofins Pharma Discovery Services (KinaseProfiler; Cerep BioPrint panel)
T5 sequence (Q9NWZ3 1-460): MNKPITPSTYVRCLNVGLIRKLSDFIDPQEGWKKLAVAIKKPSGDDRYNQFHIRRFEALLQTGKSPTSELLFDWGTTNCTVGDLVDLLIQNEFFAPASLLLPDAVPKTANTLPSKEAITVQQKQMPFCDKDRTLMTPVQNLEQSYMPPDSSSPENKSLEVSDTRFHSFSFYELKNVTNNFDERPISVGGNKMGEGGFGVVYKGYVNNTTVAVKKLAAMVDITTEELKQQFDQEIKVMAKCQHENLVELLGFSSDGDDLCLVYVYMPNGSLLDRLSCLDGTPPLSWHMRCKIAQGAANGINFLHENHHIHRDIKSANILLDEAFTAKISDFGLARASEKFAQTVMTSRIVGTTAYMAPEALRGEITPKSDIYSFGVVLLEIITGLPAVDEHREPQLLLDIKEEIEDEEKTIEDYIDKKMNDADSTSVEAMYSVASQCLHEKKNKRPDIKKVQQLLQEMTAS
The settings on record: read-out: percentage of control activity (POC), IRAK4. Put shortly: as §1

Another experiment deals with T6, TrkB (Homo sapiens, UniProt Q16620).
T6 construct: purchased Eurofins Pharma Discovery Services (KinaseProfiler; Cerep BioPrint panel)
T6 sequence (Q16620 32-822): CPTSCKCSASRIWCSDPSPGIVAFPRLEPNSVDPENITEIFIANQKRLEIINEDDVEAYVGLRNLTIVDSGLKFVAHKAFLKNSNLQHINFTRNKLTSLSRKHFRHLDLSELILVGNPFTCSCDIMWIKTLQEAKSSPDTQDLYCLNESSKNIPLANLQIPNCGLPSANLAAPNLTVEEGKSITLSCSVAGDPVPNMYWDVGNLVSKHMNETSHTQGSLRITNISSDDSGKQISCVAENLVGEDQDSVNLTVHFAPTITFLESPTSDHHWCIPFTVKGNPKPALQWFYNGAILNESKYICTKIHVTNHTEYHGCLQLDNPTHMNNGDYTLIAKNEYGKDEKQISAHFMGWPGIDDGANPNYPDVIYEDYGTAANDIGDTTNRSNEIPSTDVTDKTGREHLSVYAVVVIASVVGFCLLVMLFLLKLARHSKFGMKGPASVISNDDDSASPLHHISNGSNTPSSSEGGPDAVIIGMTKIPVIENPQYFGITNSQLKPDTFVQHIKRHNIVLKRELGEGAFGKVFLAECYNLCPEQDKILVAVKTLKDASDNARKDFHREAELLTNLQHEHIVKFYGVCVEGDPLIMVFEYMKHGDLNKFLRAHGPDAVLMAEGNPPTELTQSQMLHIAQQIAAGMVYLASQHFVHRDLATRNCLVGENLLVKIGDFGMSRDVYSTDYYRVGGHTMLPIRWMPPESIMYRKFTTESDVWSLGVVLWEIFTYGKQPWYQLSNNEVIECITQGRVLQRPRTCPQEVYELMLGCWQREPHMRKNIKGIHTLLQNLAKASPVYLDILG
The note with it: for remaining activity at 10 µM: read-out: percentage of control activity (POC), TrkB. Put shortly:
as §1

The target of a further experiment is T7, MKK6 (Homo sapiens, UniProt P52564).
T7 construct: purchased Eurofins Pharma Discovery Services (KinaseProfiler; Cerep BioPrint panel)
T7 sequence (P52564 1-334): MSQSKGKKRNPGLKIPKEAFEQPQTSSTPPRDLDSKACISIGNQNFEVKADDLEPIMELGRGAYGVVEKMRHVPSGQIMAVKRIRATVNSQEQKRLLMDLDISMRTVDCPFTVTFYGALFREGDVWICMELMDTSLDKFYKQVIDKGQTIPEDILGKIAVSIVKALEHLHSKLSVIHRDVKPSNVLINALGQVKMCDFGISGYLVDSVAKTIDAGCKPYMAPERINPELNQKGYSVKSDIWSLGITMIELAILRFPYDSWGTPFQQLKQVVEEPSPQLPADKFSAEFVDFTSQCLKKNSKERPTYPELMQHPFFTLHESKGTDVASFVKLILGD
The note with it: for remaining activity at 10 µM: read-out: percentage of control activity (POC), MKK6. Put shortly: as §1

Another experiment concerns the target T8, c-RAF (Homo sapiens, UniProt P04049).
T8 construct: purchased Eurofins Pharma Discovery Services (KinaseProfiler; Cerep BioPrint panel)
The note with it: read-out: percentage of control activity (POC), c-RAF. In outline: as §1

A further experiment has as its target T9, PKCα (Homo sapiens, UniProt P17252).
T9 construct: purchased Eurofins Pharma Discovery Services (KinaseProfiler; Cerep BioPrint panel)
The note with it: read-out: percentage of control activity (POC), PKCα. In outline:
as §1

The next experiment concerns the target T10, Rsk2 (Homo sapiens, UniProt P51812).
T10 construct: purchased Eurofins Pharma Discovery Services (KinaseProfiler; Cerep BioPrint panel)
The note with it: read-out: percentage of control activity (POC), Rsk2. Put shortly: as §1

In the next experiment the target is T11, AMPKα1 (Homo sapiens, UniProt Q13131).
T11 construct: purchased Eurofins Pharma Discovery Services (KinaseProfiler; Cerep BioPrint panel)
T11 sequence (Q13131 whole entry): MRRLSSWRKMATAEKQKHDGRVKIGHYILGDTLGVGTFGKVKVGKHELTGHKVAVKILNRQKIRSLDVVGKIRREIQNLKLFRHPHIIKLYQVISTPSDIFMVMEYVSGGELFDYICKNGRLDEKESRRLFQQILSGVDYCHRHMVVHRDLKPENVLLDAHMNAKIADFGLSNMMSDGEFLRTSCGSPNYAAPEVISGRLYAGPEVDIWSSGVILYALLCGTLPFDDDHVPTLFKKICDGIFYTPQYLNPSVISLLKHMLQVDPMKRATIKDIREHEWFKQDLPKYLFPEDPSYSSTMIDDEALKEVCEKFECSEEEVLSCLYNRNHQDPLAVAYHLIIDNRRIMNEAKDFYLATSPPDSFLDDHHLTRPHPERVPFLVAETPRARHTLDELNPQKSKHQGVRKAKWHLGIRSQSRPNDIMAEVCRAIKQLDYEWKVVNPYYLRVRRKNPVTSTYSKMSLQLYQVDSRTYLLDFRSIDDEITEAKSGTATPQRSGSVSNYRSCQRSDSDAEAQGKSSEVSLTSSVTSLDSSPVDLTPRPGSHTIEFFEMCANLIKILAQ
T11 sequence (Q9Y478 whole entry partner): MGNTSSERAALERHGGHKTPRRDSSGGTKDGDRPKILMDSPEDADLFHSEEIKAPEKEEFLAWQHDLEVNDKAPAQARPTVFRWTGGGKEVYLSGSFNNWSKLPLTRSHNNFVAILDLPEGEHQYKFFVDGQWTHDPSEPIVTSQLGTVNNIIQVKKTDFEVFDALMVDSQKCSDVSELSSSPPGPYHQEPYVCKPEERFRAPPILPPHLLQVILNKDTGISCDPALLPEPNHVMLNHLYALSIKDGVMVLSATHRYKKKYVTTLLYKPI
T11 sequence (P54619 whole entry partner): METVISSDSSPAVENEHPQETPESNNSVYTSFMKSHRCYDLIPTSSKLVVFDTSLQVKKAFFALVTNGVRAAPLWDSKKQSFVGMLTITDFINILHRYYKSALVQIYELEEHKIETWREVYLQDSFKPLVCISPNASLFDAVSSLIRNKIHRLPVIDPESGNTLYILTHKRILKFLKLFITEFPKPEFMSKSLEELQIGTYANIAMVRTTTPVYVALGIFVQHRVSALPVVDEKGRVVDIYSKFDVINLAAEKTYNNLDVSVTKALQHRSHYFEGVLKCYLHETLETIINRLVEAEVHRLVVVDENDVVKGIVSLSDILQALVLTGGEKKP
The note with it: read-out: percentage of control activity (POC), AMPKα1. Put shortly: as §1

T1 sequence (Q15759 whole entry): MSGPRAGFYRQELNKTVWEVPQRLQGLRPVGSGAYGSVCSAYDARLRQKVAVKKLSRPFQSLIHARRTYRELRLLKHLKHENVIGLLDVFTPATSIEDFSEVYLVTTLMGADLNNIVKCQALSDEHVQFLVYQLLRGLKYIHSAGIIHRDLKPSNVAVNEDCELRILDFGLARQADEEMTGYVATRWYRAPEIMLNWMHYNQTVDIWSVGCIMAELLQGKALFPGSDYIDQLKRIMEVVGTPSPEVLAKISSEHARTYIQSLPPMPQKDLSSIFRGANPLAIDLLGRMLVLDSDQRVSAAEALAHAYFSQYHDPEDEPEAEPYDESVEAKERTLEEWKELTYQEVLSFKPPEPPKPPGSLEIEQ
T10 sequence (P51812 whole entry): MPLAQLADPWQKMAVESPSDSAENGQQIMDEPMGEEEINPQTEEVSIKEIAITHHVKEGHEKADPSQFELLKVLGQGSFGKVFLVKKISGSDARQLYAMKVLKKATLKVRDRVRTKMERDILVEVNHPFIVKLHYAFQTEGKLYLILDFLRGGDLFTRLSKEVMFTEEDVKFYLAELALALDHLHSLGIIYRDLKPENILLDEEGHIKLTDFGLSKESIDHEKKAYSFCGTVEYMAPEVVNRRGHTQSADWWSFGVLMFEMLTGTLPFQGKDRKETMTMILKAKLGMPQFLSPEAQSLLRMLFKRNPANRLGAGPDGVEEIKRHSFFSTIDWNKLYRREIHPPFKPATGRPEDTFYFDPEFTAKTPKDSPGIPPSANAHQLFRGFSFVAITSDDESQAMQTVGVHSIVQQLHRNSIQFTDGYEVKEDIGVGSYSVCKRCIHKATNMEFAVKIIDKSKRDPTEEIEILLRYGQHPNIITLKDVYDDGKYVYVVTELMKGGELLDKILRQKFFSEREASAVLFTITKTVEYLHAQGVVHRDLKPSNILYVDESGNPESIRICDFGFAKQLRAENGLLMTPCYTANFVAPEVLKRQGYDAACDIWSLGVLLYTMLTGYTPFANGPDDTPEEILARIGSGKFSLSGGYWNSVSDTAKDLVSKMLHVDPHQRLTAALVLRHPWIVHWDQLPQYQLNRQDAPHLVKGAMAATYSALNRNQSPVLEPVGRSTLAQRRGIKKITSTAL

A word on the inhibition: it is the percentage by which the read-out fell short of the control. Regarding `CC(C)(C)N1CCC(c2cc(-c3ccc(F)cc3Cl)c3cc[n+]([O-])c(-c4c(Cl)cccc4Cl)c3n2)CC1` [compound 2], the values for the inhibition at 10 µM at SAPK2b, against TrkB and against MKK6 were roughly 100%, 75% and roughly 100%, respectively. Further, the remaining activity at 10 µM at SAPK2b is -5%; on DRAK1 it was 99%; at ZAP-70, 105%; at PKCβII, 117%; on IRAK4, 95%; at TrkB, 25%. In addition, the remaining activity at 10 µM on MKK6 was found to be 0%; at c-RAF, 112%; on PKCα, 106%; at Rsk2, 101%; at AMPKα1, 105%.

`Cc1ccc(C(=O)NCC2CC2)cc1-c1ccc2c(c1)NC(=O)C21CCCC1` [compound 3]: the inhibition at 10 µM at SAPK2b and at MKK6 was roughly 100% throughout. The remaining activity at 10 µM at SAPK2b is -6%; on DRAK1, 98%; on ZAP-70, 97%; on PKCβII, 103%; on IRAK4, 92%; at TrkB it was 96%. Also, the remaining activity at 10 µM was -3% on MKK6; 54% at c-RAF; 95% at PKCα; 103% on Rsk2; 98% at AMPKα1.

For the molecule `Cn1cc(-c2cccc(-c3nc(C(=O)NC4C5CC6CC4CC(O)(C6)C5)c(N)nc3N)c2)cn1` (centres unmarked) [compound 4], the remaining activity at 10 µM at SAPK2b was 99%; on DRAK1 it was 89%; on ZAP-70 it was 104%; at PKCβII, 110%; on IRAK4 it was 82%; at TrkB, 57%. For the same molecule, the remaining activity at 10 µM on MKK6 came to 80%; at c-RAF it was 52%; on PKCα, 85%; on Rsk2, 88%; at AMPKα1, 85%.

Take `CS(=O)(=O)N1CCN(c2ccc(Nc3ncc(C(N)=O)c(NC4CC4)n3)cc2)CC1` [compound 5]: the remaining activity at 10 µM worked out at 82% at SAPK2b; 1% on DRAK1; 53% on ZAP-70; 80% on PKCβII; 13% on IRAK4; 3% at TrkB. In addition, the remaining activity at 10 µM on MKK6 is 32%; at c-RAF, 10%; at PKCα it was 38%; on Rsk2, -2%; at AMPKα1, -1%.

In the case of `COc1c(NC(=O)c2ccc(C)c(-c3nnc4c(NCC(C)(C)C)nccn34)c2)cc(C(C)(C)C)cc1NS(C)(=O)=O` [compound 7, reference compound], the inhibition at 10 µM on SAPK2b and at MKK6 was roughly 100% throughout. Moreover, the remaining activity at 10 µM was -4% on SAPK2b; 144% on DRAK1; 104% at ZAP-70; 113% at PKCβII; 118% at IRAK4; 84% on TrkB. Further, the remaining activity at 10 µM on MKK6 is -3%; on c-RAF, 61%; at PKCα it was 102%; at Rsk2, 112%; on AMPKα1 it was 114%.
